Tests used:
Experiment in all cases: Kinase panel profiling
Assay type in all cases: biochemical
Conditions in all cases: 10 μM ATP
ULK3 = target: T1, ULK3 (Homo sapiens, UniProt Q6PHR2)
T1 construct: purchased Reaction Biology Corp
Procedure: (§1) Kinase panel profiling was conducted by Reaction Biology Corp. (San Diego, CA, USA). A single dose (1.0 μM) of 6r was tested against 371 recombinant human kinases in the presence of 10 μM ATP.

IR = target: T2, IR (Homo sapiens, UniProt P06213)
T2 construct: purchased Reaction Biology Corp
Procedure: as §1

GSK3a = target: T3, GSK3a (Homo sapiens, UniProt P49840)
T3 construct: purchased Reaction Biology Corp
T3 sequence (P49840 whole entry): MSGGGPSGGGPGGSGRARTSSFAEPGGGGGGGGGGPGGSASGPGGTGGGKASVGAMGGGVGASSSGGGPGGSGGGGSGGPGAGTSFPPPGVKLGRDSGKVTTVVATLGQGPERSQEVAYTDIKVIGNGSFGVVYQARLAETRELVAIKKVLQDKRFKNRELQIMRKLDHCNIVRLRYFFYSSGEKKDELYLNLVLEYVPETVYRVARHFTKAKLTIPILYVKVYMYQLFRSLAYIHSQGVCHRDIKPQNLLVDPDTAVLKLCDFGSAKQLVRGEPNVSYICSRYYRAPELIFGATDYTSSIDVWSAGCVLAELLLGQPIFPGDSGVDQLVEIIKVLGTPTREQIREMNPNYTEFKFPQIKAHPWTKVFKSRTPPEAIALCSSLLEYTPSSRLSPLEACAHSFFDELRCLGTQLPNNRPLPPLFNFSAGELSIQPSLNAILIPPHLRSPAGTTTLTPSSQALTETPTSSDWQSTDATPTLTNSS
Procedure: as §1

FGFR3 = target: T4, FGFR3 (Homo sapiens, UniProt P22607)
T4 construct: purchased Reaction Biology Corp
Procedure: as §1

GRK2 = target: T5, GRK2 (Homo sapiens, UniProt P25098)
T5 construct: purchased Reaction Biology Corp
T5 sequence (P25098 whole entry): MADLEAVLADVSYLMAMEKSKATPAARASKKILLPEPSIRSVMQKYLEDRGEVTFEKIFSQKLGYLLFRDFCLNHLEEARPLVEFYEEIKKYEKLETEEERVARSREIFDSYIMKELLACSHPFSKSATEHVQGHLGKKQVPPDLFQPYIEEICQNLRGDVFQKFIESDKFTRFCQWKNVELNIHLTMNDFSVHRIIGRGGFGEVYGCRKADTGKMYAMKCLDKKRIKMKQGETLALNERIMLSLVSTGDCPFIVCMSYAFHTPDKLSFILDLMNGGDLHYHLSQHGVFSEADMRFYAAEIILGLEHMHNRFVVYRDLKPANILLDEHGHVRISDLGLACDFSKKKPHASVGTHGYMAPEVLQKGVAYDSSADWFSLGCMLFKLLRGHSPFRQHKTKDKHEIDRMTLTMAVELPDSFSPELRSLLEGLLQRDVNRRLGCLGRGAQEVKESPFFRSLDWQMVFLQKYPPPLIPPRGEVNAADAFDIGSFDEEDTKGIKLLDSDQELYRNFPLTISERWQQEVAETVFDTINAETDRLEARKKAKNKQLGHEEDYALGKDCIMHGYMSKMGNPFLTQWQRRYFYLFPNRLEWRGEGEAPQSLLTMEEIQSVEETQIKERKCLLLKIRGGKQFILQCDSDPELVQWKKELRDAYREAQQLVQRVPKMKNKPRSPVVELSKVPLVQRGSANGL
Procedure: as §1

CAMK2d = target: T6, CAMK2d (Homo sapiens, UniProt Q13557)
T6 construct: purchased Reaction Biology Corp
Procedure: as §1

PKCtheta = target: T7, PKCtheta (Homo sapiens, UniProt Q04759)
T7 construct: purchased Reaction Biology Corp
Procedure: as §1

CDK9/CYCLIN K = target: T8, CDK9/CYCLIN K (Homo sapiens, UniProt P50750)
T8 construct: purchased Reaction Biology Corp
Procedure: as §1

PKD2/PRKD2 = target: T9, PKD2/PRKD2 (Homo sapiens, UniProt Q9BZL6)
T9 construct: purchased Reaction Biology Corp
Procedure: as §1

PAK1 = target: T10, PAK1 (Homo sapiens, UniProt Q13153)
T10 construct: purchased Reaction Biology Corp
Procedure: as §1

CDK2/cyclin O = target: T11, CDK2/cyclin O (Homo sapiens, UniProt P24941)
T11 construct: purchased Reaction Biology Corp
Procedure: as §1

MLCK2/MYLK2 = target: T12, MLCK2/MYLK2 (Homo sapiens, UniProt Q9H1R3)
T12 construct: purchased Reaction Biology Corp
Procedure: as §1

BRAF = target: T13, BRAF (Homo sapiens, UniProt P15056)
T13 construct: purchased Reaction Biology Corp
Procedure: as §1

IRR/INSRR = target: T14, IRR/INSRR (Homo sapiens, UniProt P14616)
T14 construct: purchased Reaction Biology Corp
Procedure: as §1

P38b/MAPK11 = target: T15, P38b/MAPK11 (Homo sapiens, UniProt Q15759)
T15 construct: purchased Reaction Biology Corp
Procedure: as §1

LCK2/ICK = target: T16, LCK2/ICK (Homo sapiens, UniProt Q9UPZ9)
T16 construct: purchased Reaction Biology Corp
Procedure: as §1

Haspin = target: T17, Haspin (Homo sapiens, UniProt Q8TF76)
T17 construct: purchased Reaction Biology Corp
T17 sequence (Q8TF76 whole entry): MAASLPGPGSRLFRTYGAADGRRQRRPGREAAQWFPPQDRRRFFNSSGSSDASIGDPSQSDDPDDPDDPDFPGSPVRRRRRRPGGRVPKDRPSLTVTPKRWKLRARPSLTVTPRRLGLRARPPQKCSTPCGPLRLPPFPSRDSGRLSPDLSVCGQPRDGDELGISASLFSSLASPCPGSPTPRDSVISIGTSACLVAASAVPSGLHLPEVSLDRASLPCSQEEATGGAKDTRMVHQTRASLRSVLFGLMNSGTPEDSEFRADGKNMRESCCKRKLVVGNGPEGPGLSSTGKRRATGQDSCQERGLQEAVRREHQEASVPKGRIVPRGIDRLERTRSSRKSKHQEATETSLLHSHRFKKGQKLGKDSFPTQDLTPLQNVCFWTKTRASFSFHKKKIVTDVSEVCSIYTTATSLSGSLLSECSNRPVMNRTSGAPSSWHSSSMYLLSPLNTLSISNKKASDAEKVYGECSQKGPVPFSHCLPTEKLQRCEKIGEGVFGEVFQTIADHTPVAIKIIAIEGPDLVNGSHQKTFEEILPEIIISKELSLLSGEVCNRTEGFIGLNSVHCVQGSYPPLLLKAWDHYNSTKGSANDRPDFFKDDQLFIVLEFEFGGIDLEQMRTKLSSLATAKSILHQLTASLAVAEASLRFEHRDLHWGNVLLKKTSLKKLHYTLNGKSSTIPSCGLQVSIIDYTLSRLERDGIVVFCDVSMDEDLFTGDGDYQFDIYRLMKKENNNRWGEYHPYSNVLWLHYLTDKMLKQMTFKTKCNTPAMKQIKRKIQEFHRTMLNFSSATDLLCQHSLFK
Procedure: as §1

CK1d = target: T18, CK1d (Homo sapiens, UniProt P48730)
T18 construct: purchased Reaction Biology Corp
Procedure: as §1

VRK1 = target: T19, VRK1 (Homo sapiens, UniProt Q99986)
T19 construct: purchased Reaction Biology Corp
Procedure: as §1

TRKA = target: T20, TRKA (Homo sapiens, UniProt P04629)
T20 construct: purchased Reaction Biology Corp
Procedure: as §1

RSK2 = target: T21, RSK2 (Homo sapiens, UniProt P51812)
T21 construct: purchased Reaction Biology Corp
Procedure: as §1

EPHA4 = target: T22, EPHA4 (Homo sapiens, UniProt P54764)
T22 construct: purchased Reaction Biology Corp
Procedure: as §1

CDK9/cyclin T1 = target: T23, CDK9/cyclin T1 (Homo sapiens, UniProt P50750)
T23 construct: purchased Reaction Biology Corp
Procedure: as §1

SGK2 = target: T24, SGK2 (Homo sapiens, UniProt Q9HBY8)
T24 construct: purchased Reaction Biology Corp
Procedure: as §1

GCK/MAP4K2 = target: T25, GCK/MAP4K2 (Homo sapiens, UniProt Q12851)
T25 construct: purchased Reaction Biology Corp
Procedure: as §1

PKN1/PRK1 = target: T26, PKN1/PRK1 (Homo sapiens, UniProt Q16512)
T26 construct: purchased Reaction Biology Corp
Procedure: as §1

PKN3/PRK3 = target: T27, PKN3/PRK3 (Homo sapiens, UniProt Q6P5Z2)
T27 construct: purchased Reaction Biology Corp
Procedure: as §1

FAK/PTK2 = target: T28, FAK/PTK2 (Homo sapiens, UniProt Q05397)
T28 construct: purchased Reaction Biology Corp
T28 sequence (Q05397 whole entry): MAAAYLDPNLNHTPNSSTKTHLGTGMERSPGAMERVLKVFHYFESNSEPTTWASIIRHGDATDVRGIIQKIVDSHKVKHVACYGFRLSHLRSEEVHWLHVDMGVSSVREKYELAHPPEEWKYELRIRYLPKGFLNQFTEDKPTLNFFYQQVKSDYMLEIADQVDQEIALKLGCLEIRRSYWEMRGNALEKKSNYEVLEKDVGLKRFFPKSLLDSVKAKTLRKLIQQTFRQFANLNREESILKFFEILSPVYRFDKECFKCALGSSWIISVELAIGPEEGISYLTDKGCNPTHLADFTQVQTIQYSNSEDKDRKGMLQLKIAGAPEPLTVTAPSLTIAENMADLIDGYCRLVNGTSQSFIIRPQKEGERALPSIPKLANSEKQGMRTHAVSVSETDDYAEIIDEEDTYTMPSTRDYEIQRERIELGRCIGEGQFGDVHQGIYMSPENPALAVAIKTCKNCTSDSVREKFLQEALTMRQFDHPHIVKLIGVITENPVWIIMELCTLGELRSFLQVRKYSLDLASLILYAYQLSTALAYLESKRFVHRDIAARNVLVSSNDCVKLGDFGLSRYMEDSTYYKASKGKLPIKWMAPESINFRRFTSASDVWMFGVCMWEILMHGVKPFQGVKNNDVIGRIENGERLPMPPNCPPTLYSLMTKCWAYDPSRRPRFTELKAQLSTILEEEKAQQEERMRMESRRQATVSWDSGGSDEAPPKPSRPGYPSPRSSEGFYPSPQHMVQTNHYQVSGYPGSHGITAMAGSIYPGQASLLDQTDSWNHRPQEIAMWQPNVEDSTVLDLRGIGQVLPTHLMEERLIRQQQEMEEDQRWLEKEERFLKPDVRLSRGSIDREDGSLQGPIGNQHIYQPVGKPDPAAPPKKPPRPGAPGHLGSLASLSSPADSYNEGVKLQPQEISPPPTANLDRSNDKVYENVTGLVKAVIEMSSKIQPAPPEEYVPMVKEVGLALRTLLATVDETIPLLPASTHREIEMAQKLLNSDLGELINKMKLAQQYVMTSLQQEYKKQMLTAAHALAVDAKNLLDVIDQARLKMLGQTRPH
Procedure: as §1

FGFR4 = target: T29, FGFR4 (Homo sapiens, UniProt P22455)
T29 construct: purchased Reaction Biology Corp
T29 sequence (P22455 22-802): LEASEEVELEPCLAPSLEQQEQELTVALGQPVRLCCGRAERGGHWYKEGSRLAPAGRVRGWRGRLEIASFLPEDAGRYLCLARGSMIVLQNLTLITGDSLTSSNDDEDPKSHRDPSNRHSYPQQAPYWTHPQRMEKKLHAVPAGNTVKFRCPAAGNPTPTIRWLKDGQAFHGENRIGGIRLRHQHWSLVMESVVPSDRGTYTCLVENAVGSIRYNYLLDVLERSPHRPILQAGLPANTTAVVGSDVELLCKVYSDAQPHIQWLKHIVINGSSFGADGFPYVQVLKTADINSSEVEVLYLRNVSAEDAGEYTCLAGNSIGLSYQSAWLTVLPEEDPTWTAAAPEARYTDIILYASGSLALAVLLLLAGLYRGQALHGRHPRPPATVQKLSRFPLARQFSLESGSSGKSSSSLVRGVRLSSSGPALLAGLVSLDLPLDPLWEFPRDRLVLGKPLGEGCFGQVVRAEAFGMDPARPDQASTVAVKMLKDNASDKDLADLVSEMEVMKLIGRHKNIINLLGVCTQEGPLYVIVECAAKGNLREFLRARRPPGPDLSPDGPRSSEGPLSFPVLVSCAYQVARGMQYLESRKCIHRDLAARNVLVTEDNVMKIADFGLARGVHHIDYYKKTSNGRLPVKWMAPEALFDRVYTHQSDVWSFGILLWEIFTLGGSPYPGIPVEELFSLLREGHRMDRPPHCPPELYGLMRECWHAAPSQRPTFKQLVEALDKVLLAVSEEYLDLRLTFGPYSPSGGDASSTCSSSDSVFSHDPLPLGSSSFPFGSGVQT
Procedure: as §1

CK1g1 = target: T30, CK1g1 (Homo sapiens, UniProt Q9HCP0)
T30 construct: purchased Reaction Biology Corp
Procedure: as §1

STK25/YSK1 = target: T31, STK25/YSK1 (Homo sapiens, UniProt O00506)
T31 construct: purchased Reaction Biology Corp
Procedure: as §1

PKN2/PRK2 = target: T32, PKN2/PRK2 (Homo sapiens, UniProt Q16513)
T32 construct: purchased Reaction Biology Corp
Procedure: as §1

ZAK/MLTK = target: T33, ZAK/MLTK (Homo sapiens, UniProt Q9NYL2)
T33 construct: purchased Reaction Biology Corp
Procedure: as §1

FGFR2 = target: T34, FGFR2 (Homo sapiens, UniProt P21802)
T34 construct: purchased Reaction Biology Corp
Procedure: as §1

CDK6/cyclin D1 = target: T35, CDK6/cyclin D1 (Homo sapiens, UniProt Q00534)
T35 construct: purchased Reaction Biology Corp
Procedure: as §1

RET = target: T36, RET (Homo sapiens, UniProt P07949)
T36 construct: purchased Reaction Biology Corp
T36 sequence (P07949 29-1114): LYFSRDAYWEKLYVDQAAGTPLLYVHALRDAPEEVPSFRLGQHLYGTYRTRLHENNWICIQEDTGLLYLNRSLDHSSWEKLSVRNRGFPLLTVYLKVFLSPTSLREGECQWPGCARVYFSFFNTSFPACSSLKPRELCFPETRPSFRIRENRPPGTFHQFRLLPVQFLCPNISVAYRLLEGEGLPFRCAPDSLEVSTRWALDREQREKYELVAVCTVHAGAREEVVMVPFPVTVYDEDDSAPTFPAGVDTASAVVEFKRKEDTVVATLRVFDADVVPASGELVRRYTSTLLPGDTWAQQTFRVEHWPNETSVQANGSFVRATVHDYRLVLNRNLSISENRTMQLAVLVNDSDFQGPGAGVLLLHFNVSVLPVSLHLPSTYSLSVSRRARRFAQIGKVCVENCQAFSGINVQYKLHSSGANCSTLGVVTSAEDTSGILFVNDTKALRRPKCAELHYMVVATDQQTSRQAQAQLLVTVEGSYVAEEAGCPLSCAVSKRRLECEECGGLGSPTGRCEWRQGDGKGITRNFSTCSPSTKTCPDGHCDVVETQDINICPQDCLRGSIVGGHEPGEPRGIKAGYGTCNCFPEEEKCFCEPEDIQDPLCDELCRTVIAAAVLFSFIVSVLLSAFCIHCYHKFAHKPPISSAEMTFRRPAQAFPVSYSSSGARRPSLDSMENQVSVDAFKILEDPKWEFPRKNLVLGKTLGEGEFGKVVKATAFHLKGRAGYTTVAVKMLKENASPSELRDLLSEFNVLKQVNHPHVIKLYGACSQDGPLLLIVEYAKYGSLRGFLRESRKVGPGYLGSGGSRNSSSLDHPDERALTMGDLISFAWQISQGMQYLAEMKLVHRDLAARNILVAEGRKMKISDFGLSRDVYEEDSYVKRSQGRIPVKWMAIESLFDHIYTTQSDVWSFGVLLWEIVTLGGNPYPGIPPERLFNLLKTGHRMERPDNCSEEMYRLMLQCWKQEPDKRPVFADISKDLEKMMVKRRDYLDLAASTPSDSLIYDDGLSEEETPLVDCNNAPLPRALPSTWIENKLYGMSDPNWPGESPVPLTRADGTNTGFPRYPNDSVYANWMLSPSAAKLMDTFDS
Procedure: as §1

PKG1a = target: T37, PKG1a (Homo sapiens, UniProt Q13976)
T37 construct: purchased Reaction Biology Corp
Procedure: as §1

CAMK2b = target: T38, CAMK2b (Homo sapiens, UniProt Q13554)
T38 construct: purchased Reaction Biology Corp
Procedure: as §1

NEK11 = target: T39, NEK11 (Homo sapiens, UniProt Q8NG66)
T39 construct: purchased Reaction Biology Corp
Procedure: as §1

HIPK3 = target: T40, HIPK3 (Homo sapiens, UniProt Q9H422)
T40 construct: purchased Reaction Biology Corp
Procedure: as §1

PKCmu/PRKD1 = target: T41, PKCmu/PRKD1 (Homo sapiens, UniProt Q15139)
T41 construct: purchased Reaction Biology Corp
Procedure: as §1

BTK = target: T42, BTK (Homo sapiens, UniProt Q06187)
T42 construct: purchased Reaction Biology Corp
Procedure: as §1

Question: Which inhibition at 1 µM (ULK3) does the source give for `Cc1ccc(NC(=O)c2ccc(CN3CCN(C)CC3)c(C(F)(F)F)c2)cc1-c1cnc2sc(N)nc2c1` [6r] here?
Answer: 7.2%

Question: What about the inhibition at 1 µM (IR) of the same compound?
Answer: 1.9%

Question: And the inhibition at 1 µM (GSK3a)?
Answer: 7.4%

Question: And the inhibition at 1 µM (FGFR3)?
Answer: 0%

Question: And the inhibition at 1 µM (GRK2)?
Answer: 0%

Question: And the inhibition at 1 µM (CAMK2d)?
Answer: 0%

Question: And the inhibition at 1 µM (PKCtheta)?
Answer: 6.9%

Question: And the inhibition at 1 µM (CDK9/CYCLIN K)?
Answer: 0%

Question: And the inhibition at 1 µM (PKD2/PRKD2)?
Answer: 28.6%

Question: What about the inhibition at 1 µM (PAK1) of the same compound?
Answer: 6.9%

Question: And the inhibition at 1 µM (CDK2/cyclin O)?
Answer: 12.3%

Question: And the inhibition at 1 µM (MLCK2/MYLK2)?
Answer: 4.8%

Question: What about the inhibition at 1 µM (BRAF) of the same compound?
Answer: 97.4%

Question: And the inhibition at 1 µM (IRR/INSRR)?
Answer: 0%

Question: And the inhibition at 1 µM (P38b/MAPK11)?
Answer: 77.7%

Question: And the inhibition at 1 µM (LCK2/ICK)?
Answer: 60.8%

Question: And the inhibition at 1 µM (Haspin)?
Answer: 12.1%

Question: What about the inhibition at 1 µM (CK1d) of the same compound?
Answer: 27.3%

Question: What about the inhibition at 1 µM (VRK1) of the same compound?
Answer: 1.6%

Question: And the inhibition at 1 µM (TRKA)?
Answer: 9.7%

Question: What about the inhibition at 1 µM (RSK2) of the same compound?
Answer: 32.4%

Question: And the inhibition at 1 µM (EPHA4)?
Answer: 64.7%

Question: What about the inhibition at 1 µM (CDK9/cyclin T1) of the same compound?
Answer: 0%

Question: What about the inhibition at 1 µM (SGK2) of the same compound?
Answer: 3.8%

Question: And the inhibition at 1 µM (GCK/MAP4K2)?
Answer: 21.8%

Question: And the inhibition at 1 µM (PKN1/PRK1)?
Answer: 15.1%

Question: And the inhibition at 1 µM (PKN3/PRK3)?
Answer: 8.6%

Question: And the inhibition at 1 µM (FAK/PTK2)?
Answer: 7.8%

Question: And the inhibition at 1 µM (FGFR4)?
Answer: 30.1%

Question: What about the inhibition at 1 µM (CK1g1) of the same compound?
Answer: 50.5%

Question: And the inhibition at 1 µM (STK25/YSK1)?
Answer: 9.3%

Question: And the inhibition at 1 µM (PKN2/PRK2)?
Answer: 0%

Question: What about the inhibition at 1 µM (ZAK/MLTK) of the same compound?
Answer: 50%

Question: And the inhibition at 1 µM (FGFR2)?
Answer: 43%

Question: And the inhibition at 1 µM (CDK6/cyclin D1)?
Answer: 9.1%

Question: And the inhibition at 1 µM (RET)?
Answer: 99.4%

Question: And the inhibition at 1 µM (PKG1a)?
Answer: 10.1%

Question: What about the inhibition at 1 µM (CAMK2b) of the same compound?
Answer: 0%

Question: What about the inhibition at 1 µM (NEK11) of the same compound?
Answer: 18.3%

Question: What about the inhibition at 1 µM (HIPK3) of the same compound?
Answer: 0.2%

Question: What about the inhibition at 1 µM (PKCmu/PRKD1) of the same compound?
Answer: 15.9%

Question: What about the inhibition at 1 µM (BTK) of the same compound?
Answer: 4.7%
